Literature values as cited in patent US20140255982A1, “METHOD OF CANCER DIAGNOSIS USING THE ANALYSIS OF ISOTOPES” (priority 2007, published 2014).

How the values were obtained:
rats = details: within 5 days; deuterium in the form of D2O
microorganisms = details: deuterium in the form of D2O

[2H]O[2H] [D2O]
kill rate of rats (rats): 99.5%
inhibitory activity against microorganisms (microorganisms): 92%
